# Test results from patent US20260167656A1, “PHOSPHORAMIDATE COMPOUNDS AND USES THEREOF” (ALLORION THERAPEUTICS INC, priority 2022, published 2026).
# Columns and labels:
# [1] = test system: non-small cell lung cancer cell line H460; assay: In vitro human cancer cell line cytotoxicity (proliferation) assay in H460, CellTiter-Glo, 72 hours; format: cell-based; details: H460 cells, DMSO condition (no AKR1C3 inhibitor), read-out: CTG H460: Avg IC50 (nM) [Assay Condition: DMSO]
# How it was run: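 H460 cells were seeded at 3×10^3 per well and grown 24 h at 37 °C, 5% CO2 before compound addition from 10 mM DMSO stocks. After 72 h further incubation, viability was measured by CellTiter-Glo, and IC50 values in nM were derived from the proliferation data.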
# [2] = test system: non-small cell lung cancer cell line H460; assay: H460 proliferation assay in the presence of 3 uM ASP9521 (AKR1C3 specific inhibitor); format: cell-based, human; details: H460 cells, CellTiter-Glo, 72 hours, in the presence of 3 uM ASP9521 added 4 hours prior to compounds; read-out: CTG H460: Avg IC50 (nM) [Assay Condition: ASP9521]
# How it was run: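 H460 cells pre-incubated 24 h, then exposed to compounds for 72 h at 37 °C, 5% CO2. Viability read by CellTiter-Glo. ASP9521 (3 uM, AKR1C3 inhibitor) added 4 h before compounds.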
compound,measurement,setting,value
Cn1cnc2ccc(Oc3cc4c(cc3[N+](=O)[O-])CCC4OP(=O)(N3CC3)N3CC3)cc2c1=O (centres unmarked) [Example 194],IC50,"[1]; Homo sapiens, NCI-H460, 72 h",10 to 50 nM
same,IC50,[2],1290 nM
Cn1cnc2ccc(Oc3cc4c(cc3[N+](=O)[O-])CCC4OP(=O)(N3CC3)N3CC3)cc2c1=O (centres unmarked) [Example 195],IC50,[1],10 to 50 nM
same,IC50,[2],4980 nM
O=[N+]([O-])c1cc2c(cc1Oc1ccccc1-c1ccccc1)C(OP(=O)(N1CC1)N1CC1)CC2 (centres unmarked) [Example 196],IC50,"[1]; Homo sapiens, NCI-H460, 72 h",≥ 100 nM
same,IC50,[2],6370 nM
O=[N+]([O-])c1cc2c(cc1Oc1ccccc1-c1ccccc1)C(OP(=O)(N1CC1)N1CC1)CC2 (centres unmarked) [Example 197],IC50,[1],≥ 100 nM
same,IC50,[2],1760 nM
O=[N+]([O-])c1cc2c(cc1Oc1ccc(-c3ccncc3)cc1)C(OP(=O)(N1CC1)N1CC1)CC2 (centres unmarked) [Example 198],IC50,"[1]; Homo sapiens, NCI-H460, 72 h",< 10 nM
same,IC50,[2],2230 nM
"CN1Cc2ccc(Oc3cc4c(cc3[N+](=O)[O-])OCCC4OP(=O)(N3CC3)N3CC3)cc2C1=O (centres unmarked) [Example 199, 6-((2-methyl-3-oxoisoindolin-5-yl)oxy)-7-nitrochroman-4-yl di(aziridin-1-yl)phosphinate]",IC50,"[1]; Homo sapiens, NCI-H460, 72 h",< 10 nM
same,IC50,[2],416 nM
CN1CCc2ccc(Oc3cc4c(cc3[N+](=O)[O-])OCCC4OP(=O)(N3CC3)N3CC3)cc2C1=O (centres unmarked) [Example 200],IC50,"[1]; Homo sapiens, NCI-H460, 72 h",10 to 50 nM
same,IC50,[2],434 nM
CC(OP(=O)(N1CC1C)N1CC1C)c1ccc([N+](=O)[O-])c(Oc2cccc(C(=O)N(C)C)c2)c1 (centres unmarked) [Example 205],IC50,"[1]; Homo sapiens, NCI-H460, 72 h",< 10 nM
same,IC50,[2],184 nM
"CC1CN1P(=O)(OCc1ccc([N+](=O)[O-])c(Oc2cccc(C(=O)N(C)C)c2)c1)N1CC1C (centres unmarked) [Example 206, 3-(3-(dimethylcarbamoyl)phenoxy)-4-nitrobenzyl bis(2-methylaziridin-1-yl)phosphinate]",IC50,"[1]; Homo sapiens, NCI-H460, 72 h",< 10 nM
same,IC50,[2],82.3 nM
C[C@H]1CN1P(=O)(OCc1ccc([N+](=O)[O-])c(Oc2cccc(C(=O)N(C)C)c2)c1)N1C[C@@H]1C (some centres unmarked) [Example 207],IC50,"[1]; Homo sapiens, NCI-H460, 72 h",< 10 nM
same,IC50,[2],217 nM
C[C@@H]1CN1P(=O)(OCc1ccc([N+](=O)[O-])c(Oc2cccc(C(=O)N(C)C)c2)c1)N1C[C@H]1C (some centres unmarked) [Example 208],IC50,"[1]; Homo sapiens, NCI-H460, 72 h",< 10 nM
same,IC50,[2],184 nM
CC(OP(=O)(N1C[C@H]1C)N1C[C@H]1C)c1ccc([N+](=O)[O-])c(Oc2cccc(C(=O)N(C)C)c2)c1 (some centres unmarked) [Example 210],IC50,"[1]; Homo sapiens, NCI-H460, 72 h",< 10 nM
same,IC50,[2],294 nM
CC(OP(=O)(N1C[C@@H]1C)N1C[C@@H]1C)c1ccc([N+](=O)[O-])c(Oc2cccc(C(=O)N(C)C)c2)c1 (some centres unmarked) [Example 211],IC50,"[1]; Homo sapiens, NCI-H460, 72 h",< 10 nM
same,IC50,[2],1270 nM
CC(OP(=O)(N1C[C@H]1C)N1C[C@H]1C)c1ccc([N+](=O)[O-])c(Oc2cccc(C(=O)N(C)C)c2)c1 (some centres unmarked) [Example 212],IC50,[1],< 10 nM
same,IC50,[2],958 nM
CC(OP(=O)(N1C[C@@H]1C)N1C[C@@H]1C)c1ccc([N+](=O)[O-])c(Oc2ccc(C(=O)N(C)C)cc2)c1 (some centres unmarked) [Example 213],IC50,"[1]; Homo sapiens, NCI-H460, 72 h",< 10 nM
same,IC50,[2],1200 nM
CC(OP(=O)(N1C[C@@H]1C)N1C[C@@H]1C)c1ccc([N+](=O)[O-])c(Oc2ccc(C(=O)N(C)C)cc2)c1 (some centres unmarked) [Example 214],IC50,[1],< 10 nM
same,IC50,[2],913 nM
CC(OP(=O)(N1C[C@H]1C)N1C[C@H]1C)c1ccc([N+](=O)[O-])c(Oc2ccc(C(=O)N(C)C)cc2)c1 (some centres unmarked) [Example 215],IC50,"[1]; Homo sapiens, NCI-H460, 72 h",< 10 nM
same,IC50,[2],3780 nM
CC(OP(=O)(N1C[C@H]1C)N1C[C@H]1C)c1ccc([N+](=O)[O-])c(Oc2ccc(C(=O)N(C)C)cc2)c1 (some centres unmarked) [Example 216],IC50,[1],< 10 nM
same,IC50,[2],3240 nM
CC(OP(=O)(N1C[C@@H]1C)N1C[C@@H]1C)c1ccc([N+](=O)[O-])c(Oc2ccc(-c3ccccc3)cc2)c1 (some centres unmarked) [Example 217],IC50,"[1]; Homo sapiens, NCI-H460, 72 h",< 10 nM
same,IC50,[2],1600 nM
CC(OP(=O)(N1C[C@H]1C)N1C[C@H]1C)c1ccc([N+](=O)[O-])c(Oc2ccc(-c3ccccc3)cc2)c1 (some centres unmarked) [Example 218],IC50,"[1]; Homo sapiens, NCI-H460, 72 h",< 10 nM
same,IC50,[2],1370 nM
CC(OP(=O)(N1C[C@@H]1C)N1C[C@@H]1C)c1ccc([N+](=O)[O-])c(Oc2ccc(-c3ccccc3)cc2)c1 (some centres unmarked) [Example 219],IC50,[1],< 10 nM
same,IC50,[2],2750 nM
CC(OP(=O)(N1C[C@H]1C)N1C[C@H]1C)c1ccc([N+](=O)[O-])c(Oc2ccc(-c3ccccc3)cc2)c1 (some centres unmarked) [Example 220],IC50,[1],< 10 nM
same,IC50,[2],5050 nM
CC(OP(=O)(N1C[C@@H]1C)N1C[C@@H]1C)c1ccc([N+](=O)[O-])c(Oc2ccc(-c3ccc(F)cn3)c(F)c2)c1 (some centres unmarked) [Example 221],IC50,"[1]; Homo sapiens, NCI-H460, 72 h",< 10 nM
same,IC50,[2],1210 nM
CC(OP(=O)(N1C[C@H]1C)N1C[C@H]1C)c1ccc([N+](=O)[O-])c(Oc2ccc(-c3ccc(F)cn3)c(F)c2)c1 (some centres unmarked) [Example 222],IC50,"[1]; Homo sapiens, NCI-H460, 72 h",10 to 50 nM
same,IC50,[2],3260 nM
CC(OP(=O)(N1C[C@@H]1C)N1C[C@@H]1C)c1ccc([N+](=O)[O-])c(Oc2ccc(-c3ccc(F)cn3)c(F)c2)c1 (some centres unmarked) [Example 223],IC50,[1],< 10 nM
same,IC50,[2],2590 nM
CC(OP(=O)(N1C[C@H]1C)N1C[C@H]1C)c1ccc([N+](=O)[O-])c(Oc2ccc(-c3ccc(F)cn3)c(F)c2)c1 (some centres unmarked) [Example 224],IC50,[1],< 10 nM
same,IC50,[2],6460 nM
C[C@@H]1CN1P(=O)(OC(c1ccc([N+](=O)[O-])c(Oc2cccc(C(=O)N(C)C)c2)c1)C(F)(F)F)N1C[C@H]1C (some centres unmarked) [Example 226],IC50,"[1]; Homo sapiens, NCI-H460, 72 h",10 to 50 nM
same,IC50,[2],> 10000 nM
C[C@H]1CN1P(=O)(OC(c1ccc([N+](=O)[O-])c(Oc2cccc(C(=O)N(C)C)c2)c1)C(F)(F)F)N1C[C@@H]1C (some centres unmarked) [Example 227],IC50,"[1]; Homo sapiens, NCI-H460, 72 h",10 to 50 nM
same,IC50,[2],9760 nM
C[C@@H]1CN1P(=O)(OC(c1ccc([N+](=O)[O-])c(Oc2cccc(C(=O)N(C)C)c2)c1)C(F)(F)F)N1C[C@H]1C (some centres unmarked) [Example 228],IC50,[1],10 to 50 nM
same,IC50,[2],> 10000 nM
"CN(C)C(=O)c1cccc(Oc2cc3cc(COP(=O)(N4CC4)N4CC4)oc3cc2[N+](=O)[O-])c1 [Example 229, (5-(3-(dimethylcarbamoyl)phenoxy)-6-nitrobenzofuran-2-yl)methyl di(aziridin-1-yl)phosphinate]",IC50,"[1]; Homo sapiens, NCI-H460, 72 h",< 10 nM
same,IC50,[2],515 nM
"O=[N+]([O-])c1cc2oc(COP(=O)(N3CC3)N3CC3)cc2cc1Oc1ccc(-c2ccccc2)cc1 [Example 230, (5-([1,1′-biphenyl]-4-yloxy)-6-nitrobenzofuran-2-yl)methyl di(aziridin-1-yl)phosphinate]",IC50,"[1]; Homo sapiens, NCI-H460, 72 h",< 10 nM
same,IC50,[2],846 nM
O=C(c1ccc(Oc2cc3cc(COP(=O)(N4CC4)N4CC4)oc3cc2[N+](=O)[O-])cc1)N1CCOCC1 [Example 231],IC50,"[1]; Homo sapiens, NCI-H460, 72 h",< 10 nM
same,IC50,[2],278 nM
O=C(NC1CC1)c1cccc(Oc2c([N+](=O)[O-])ccc3c2CCC3OP(=O)(N2CC2)N2CC2)c1 (centres unmarked) [Example 234],IC50,"[1]; Homo sapiens, NCI-H460, 72 h",< 10 nM
same,IC50,[2],865 nM
O=C(c1cccc(Oc2c([N+](=O)[O-])ccc3c2CCC3OP(=O)(N2CC2)N2CC2)c1)N1CCCCC1 (centres unmarked) [Example 236],IC50,[1],< 10 nM
same,IC50,[2],715 nM
O=C(c1cccc(Oc2c([N+](=O)[O-])ccc3c2CCC3OP(=O)(N2CC2)N2CC2)c1)N1CCCCC1 (centres unmarked) [Example 238],IC50,[1],< 10 nM
same,IC50,[2],1160 nM
CN(C(=O)c1cccc(Oc2c([N+](=O)[O-])ccc3c2CCC3OP(=O)(N2CC2)N2CC2)c1)c1ccccn1 (centres unmarked) [Example 247],IC50,[1],< 10 nM
same,IC50,[2],764 nM
C[C@@H]1CN(C(=O)c2cccc(Oc3c([N+](=O)[O-])ccc4c3CC[C@H]4OP(=O)(N3CC3)N3CC3)c2)C[C@H](C)O1 [Example 248],IC50,[1],< 10 nM
same,IC50,[2],1650 nM
O=C(c1cccc(Oc2c([N+](=O)[O-])ccc3c2CCC3OP(=O)(N2CC2)N2CC2)c1)N1C[C@H]2CC[C@@H](C1)O2 (some centres unmarked) [Example 249],IC50,"[1]; Homo sapiens, NCI-H460, 72 h",< 10 nM
same,IC50,[2],1340 nM
O=C(c1cccc(Oc2c([N+](=O)[O-])ccc3c2CCC3OP(=O)(N2CC2)N2CC2)c1)N1C[C@H]2CC[C@@H](C1)O2 (some centres unmarked) [Example 250],IC50,[1],< 10 nM
same,IC50,[2],1220 nM
CN(C)C(=O)c1cncc(Oc2c([N+](=O)[O-])ccc3c2CC[C@@H]3OP(=O)(N2CC2)N2CC2)c1 [Example 252],IC50,[1],10 to 50 nM
same,IC50,[2],2640 nM
CN(C(=O)c1cccc(Oc2c([N+](=O)[O-])ccc3c2CC[C@@H]3OP(=O)(N2CC2)N2CC2)c1)c1cnn(C)c1 [Example 254],IC50,[1],< 10 nM
same,IC50,[2],786 nM
CN(C)C(=O)c1cc(Oc2c([N+](=O)[O-])ccc3c2CC[C@@H]3OP(=O)(N2CC2)N2CC2)ccc1F [Example 255],IC50,[1],< 10 nM
same,IC50,[2],832 nM
O=C(c1cc(Oc2c([N+](=O)[O-])ccc3c2CC[C@@H]3OP(=O)(N2CC2)N2CC2)ccc1F)N1CCC1 [Example 257],IC50,[1],< 10 nM
same,IC50,[2],1810 nM
O=C(c1cc(Oc2c([N+](=O)[O-])ccc3c2CC[C@@H]3OP(=O)(N2CC2)N2CC2)ccc1F)N1CC(F)(F)C1 [Example 258],IC50,[1],< 10 nM
same,IC50,[2],2060 nM
O=C(c1cc(Oc2c([N+](=O)[O-])ccc3c2CC[C@@H]3OP(=O)(N2CC2)N2CC2)ccc1F)N1CCCC1 [Example 259],IC50,[1],< 10 nM
same,IC50,[2],1550 nM
CNC(=O)c1cc(Oc2c([N+](=O)[O-])ccc3c2CC[C@@H]3OP(=O)(N2CC2)N2CC2)ccc1F [Example 260],IC50,[1],< 10 nM
same,IC50,[2],734 nM
O=C(NC1CC1)c1cc(Oc2c([N+](=O)[O-])ccc3c2CC[C@@H]3OP(=O)(N2CC2)N2CC2)ccc1F [Example 261],IC50,[1],10 to 50 nM
same,IC50,[2],5690 nM
O=C(NC1CCC1)c1ccc(Oc2c([N+](=O)[O-])ccc3c2CC[C@H]3OP(=O)(N2CC2)N2CC2)cc1 [Example 262],IC50,[1],< 10 nM
same,IC50,[2],945 nM
O=C(NC1CC1)c1ccc(Oc2c([N+](=O)[O-])ccc3c2CC[C@H]3OP(=O)(N2CC2)N2CC2)cc1 [Example 263],IC50,[1],< 10 nM
same,IC50,[2],943 nM
